The test system of data set [1] is TNF-α. Nature of the data set: Inhibitory action on producing TNF-α induced by LPS in rat. The format is in vivo, SD-strain male rat. The following applies: p.o. 30 minutes before LPS (10 μg/2 ml/kg i.v.); dose giving 50% inhibition of TNF-α in blood plasma 90 minutes after LPS. As to the method:
LPS (10 μg/2 ml/kg) was administered into a tail vein of SD-strain male rat. Blood was collected from an abdominal large vein with heparin after 90 minutes from administration to prepare blood plasma. The amount of TNF-α in the blood plasma was determined by using ELISA Kit (Rat TNF-α Immunoassay kit, Biosource Co.). Each compound of the present invention was administered orally before 30 minutes from administration of LPS.

The nature of data set [2]: Converting into carboxylic acid in the living body: concentration in blood plasma of rat (LC/MS/MS). The format is in vivo, SD-strain male rat. To be noted: after Example 1(1) 1 mg/kg intravenous to rat, parent alcohol and the carboxylic acid formed from it. As to the method: The compound of Example 1(1) (1 mg/kg; alcohol compound) was administered into SD-strain male rat by intravenous route to determine each concentration of the said compound and corresponding carboxylic acid, i.e., (11α, 15α, 13E)-9-oxo-11,15-dihydroxy-16-(3-methoxymethylphenyl)-17,18,19,20-tetranor-5-thiaprost-13-enoic acid (corresponding carboxylic acid) in blood plasma. The test solution may be prepared from a physiological saline solution containing 0.3%ethanol and 0.1% POLYSORBATE 80. The concentration was determined by using liquid chromatograph mass spectrometer (LC/MS/MS).

Consider `COCc1cccc(C[C@H](O)/C=C/[C@H]2[C@H](O)CC(=O)[C@@H]2CCSCCCCO)c1` [Example 1(1), (11α, 15α, 13E)-9-oxo-11,15-Dihydroxy-16-(3-methoxymethylphenyl)-17,18,19,20-tetranor-5-thiaprost-13-en-1-alcohol], for which the “Effective dose IC50” value in data set [1] stood at 0.0574 mg/kg. For the same molecule, in data set [2] (male, SD, plasma, read-out: Concentration in blood plasma AUC0-∞), the AUC(0-inf) is 462 ± 78 ng·h/mL.
On to `COCc1cccc(C[C@H](O)/C=C/[C@H]2CCC(=O)[C@@H]2CCSCCCCO)c1` [Example 1, (15α, 13E)-9-oxo-15-Hydroxy-16-(3-methoxymethylphenyl)-17,18,19,20-tetranor-5-thiaprost-13-en-1-alcohol], for which the “Effective dose IC50” value in data set [1] was determined as 0.117 mg/kg.
Regarding `COCc1cccc(C[C@H](O)/C=C/[C@H]2[C@H](O)CC(=O)[C@@H]2CCSCCCC(=O)O)c1` [corresponding carboxylic acid, (11α, 15α, 13E)-9-oxo-11,15-dihydroxy-16-(3-methoxymethylphenyl)-17,18,19,20-tetranor-5-thiaprost-13-enoic acid], in data set [2], the “Concentration in blood plasma AUC0-∞” value was found to be 99 ± 26 ng·h/mL.

For the origin of these results see patent US6639111B2, “5-thia-ω-(substituted phenyl)-prostaglandin E alcohols, process for preparing the alcohols and pharmaceutical preparations containing the same as the active ingredient” (Ono Pharmaceutical Co., Ltd., priority 2000, dated 2003).
